{
  "source": "patent US7482375B2",
  "about": "“Compounds useful in therapy” (Pfizer Inc., priority 2005, dated 2009)",
  "data": [
    {"target": "T1, Progesterone Receptor (PR) (Homo sapiens, UniProt P06401)", "T1 construct": "endogenous in cells; host or cells: T47D human breast mammary carcinoma cells", "T1 sequence (P06401 1-933)": "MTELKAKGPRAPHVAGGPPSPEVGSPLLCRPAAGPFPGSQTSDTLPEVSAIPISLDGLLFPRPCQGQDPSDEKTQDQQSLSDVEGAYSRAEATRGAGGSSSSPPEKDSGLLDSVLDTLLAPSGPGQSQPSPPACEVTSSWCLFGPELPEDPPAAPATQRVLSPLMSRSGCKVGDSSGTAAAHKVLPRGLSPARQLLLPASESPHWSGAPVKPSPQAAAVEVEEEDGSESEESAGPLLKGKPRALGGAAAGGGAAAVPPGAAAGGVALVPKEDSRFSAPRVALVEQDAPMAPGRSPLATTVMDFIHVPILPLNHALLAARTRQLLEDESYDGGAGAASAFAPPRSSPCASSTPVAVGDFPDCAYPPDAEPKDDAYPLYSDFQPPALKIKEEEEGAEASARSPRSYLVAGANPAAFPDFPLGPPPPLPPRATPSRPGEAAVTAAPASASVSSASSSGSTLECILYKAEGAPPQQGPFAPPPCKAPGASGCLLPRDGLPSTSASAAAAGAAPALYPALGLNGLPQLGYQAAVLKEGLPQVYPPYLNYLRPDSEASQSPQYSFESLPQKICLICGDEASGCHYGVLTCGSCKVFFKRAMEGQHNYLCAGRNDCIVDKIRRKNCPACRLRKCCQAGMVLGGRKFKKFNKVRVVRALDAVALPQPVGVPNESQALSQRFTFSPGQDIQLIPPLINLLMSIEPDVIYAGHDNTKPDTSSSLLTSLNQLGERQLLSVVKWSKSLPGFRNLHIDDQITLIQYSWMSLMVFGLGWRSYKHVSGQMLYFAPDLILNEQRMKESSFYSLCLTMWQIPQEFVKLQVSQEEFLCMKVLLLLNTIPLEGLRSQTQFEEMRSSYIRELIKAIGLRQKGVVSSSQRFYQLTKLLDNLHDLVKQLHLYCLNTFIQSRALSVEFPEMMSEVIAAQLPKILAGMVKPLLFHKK", "experiment": "In vitro functional assay for progesterone receptor (PR) antagonism: inhibition of progesterone-induced alkaline phosphatase expression in T47D cells", "format": "cell-based", "settings": "Screen 1.0, functional progesterone antagonism; antagonist format (5 nM P4), alkaline phosphatase inhibition in T47D human mammary carcinoma cells", "text": "1.0 In vitro Functional Assay for Progesterone Receptor (PR) Antagonism\nThe assay for PR antagonism takes advantage of the extensively reported modulation of alkaline phosphatase (AP) expression in human breast T47D mammary carcinoma cells {Beck et al., D. P. (1993). The progesterone antagonist RU486 acquires agonist activity upon stimulation of cAMP signalling pathways. Proc Natl Acad Sci USA 90, 4441-4445; Fensome et al. (2002). New progesterone receptor antagonists: 3,3-disubstituted-5-aryloxindoles. Bioorg Med Chem Left 12, 3487-3490; Zhang et al., (2002a). 6-Aryl-1,4-dihydro-benzo d 1,3 oxazin-2-ones: a novel class of potent, selective, and orally active nonsteroidal progesterone receptor antagonists. Journal of Medicinal Chemistry 45, 4379-4382; Zhang et al., (2003). Novel 6-aryl-1,4-dihydrobenzo d oxazine-2-thiones as potent, selective, and orally active nonsteroidal progesterone receptor agonists. Bioorganic & Medicinal Chemistry Letters 13, 1313-1316; Zhang et al., (2002b). Potent nonsteroidal progesterone receptor agonists: synthesis and SAR study of 6-aryl benzoxazines. Bioorganic & Medicinal Chemistry Letters 12, 787-790; Zhang, Z. et al., (2000). In vitro characterization of trimegestone: a new potent and selective progestin. Steroids 65, 637-643.}. […] In the absence of progesterone any agonist activity is also observed as an induction of AP activity. By running the assay in two formats (+/−progesterone (P4)), compounds behaving as PR antagonists, agonists or partials can be identified.\nThe materials required to grow T47D cells and perform the progesterone-induced AP assay are outlined in Table 1.\nBriefly, T47D cells are grown by propagating in DMEM+10% FBS+2 mM Glutamax at 37° C./5% CO2. At 80-90% confluence, the media is exchanged for phenol red free DMEM+5% CS-FCS (Assay media) and cultured for a further 24 hrs at 37° C./5% CO2. T47D cells are then plated at 2.5×10^4 cells/well in 100 μL assay media in sufficient 96 well plates for the assay, in triplicates of each condition. For example, for a 5 point IC50 curve on one compound, this is equivalent to 36 wells (2×18 wells, ±P4). These plates are then cultured for 24 hrs at 37° C./5% CO2, leaving the outside wells blank by the addition of 200 μL PBS.\nA 10 mM stock solution of compounds is prepared in DMSO (stored −20° C. in 10 µL aliquots). A 10 mM DMSO stock of RU486 is used as a standard pure PR antagonist. The compounds under investigation are added to assay medium, or a mixture of 0.05% pluronic acid in PBS, ±10 nM P4 to give a final concentration of 20 µM (i.e. 10 µL of the 10 mM stock to […] assay medium ±10 nM P4). The samples are mixed thoroughly and serial dilutions of compounds from 10 µM to 0.1 nM in a 96 well plate, are prepared as follows:\nThe outside wells are left blank. Assay medium (225 μL) is added to one half of the plate (−P4), rows 3-8, and to the other half of the plate, assay medium +10 nM P4. To row 2, 250 μL of the top concentration of compound (20 μM±10 nM P4) is added. 25 μL of the […] stock from row 2 is removed and added to the 225 μL of assay medium ±10 nM P4 in row 3 and thoroughly mixed. This process is repeated down the plate to row 7 to achieve serial dilutions. The vehicle control is adjusted to contain 0.1% DMSO (i.e. 20 μL to 10 mL assay medium ±10 nM P4 to give a concentration of 0.2% DMSO, add 250 μL to row 8).\n100 μL of reagent from the dilution plates are transferred into the corresponding wells containing T47D cells in 100 μL assay medium, to give a final concentration of 10 μM to 0.1 nM compound (5 nM P4 antagonist format). The cells for 20 hrs at 37° C./5% CO2., then media is removed, cells washed with PBS (200 μL) and lysed by placing the cells at −80° C. for 15 min and thawing at room temp. The Freeze-thaw lysis is repeated, then PBS (50 μL) is added to each well. […]", "units": {"IC50": "nM"}, "values": [
      {"smiles": "CNC(=O)Cn1nc(C2CC2)c(Oc2cc(C)c(C#N)c(C)c2)c1C", "note": "[Example 71, 2-[4-(4-Cyano-3,5-dimethyl-phenoxy)-3-cyclopropyl-5-methyl-1H-pyrazol-1-yl]-N-methyl-acetamide]", "IC50": 4},
      {"smiles": "Cc1cc(Oc2c(C3CC3)n[nH]c2C2CC2)cc(C)c1C#N", "note": "[Example 4, 4-[(3,5-Dicyclopropyl-1H-pyrazol-4-yl)oxy]-2,6-dimethylbenzonitrile]", "IC50": 9},
      {"smiles": "CNC(=O)Cn1nc(C2CC2)c(Oc2cc(C)c(C#N)c(C)c2)c1C1CC1", "note": "[Example 65, 2-[4-(4-Cyano-3,5-dimethylphenoxy)-3,5-dicyclopropyl-1H-pyrazol-1-yl]-N-methyl-acetamide]", "IC50": 3},
      {"smiles": "CCc1nn(CC#N)c(CC)c1Oc1cc(C)c(C#N)c(C)c1", "note": "[Example 87, 4-{[1-(Cyanomethyl)-3,5-diethyl-1H-pyrazol-4-yl]oxy}-2,6-dimethylbenzonitrile]", "IC50": 5},
      {"smiles": "Cc1cc(Oc2c(C3CC3)nn(Cc3cncnc3)c2C2CC2)cc(C)c1C#N", "note": "[Example 126, 4-({3,5-Dicyclopropyl-1-[(pyrimidin-5-yl)methyl]-1H-pyrazol-4-yl}oxy)-2,6-dimethylbenzonitrile]", "IC50": 3},
      {"smiles": "CCCn1nc(CC)c(Oc2ccc(C#N)cc2)c1CC", "note": "[Example 146, 4-[(3,5-Diethyl-1-propyl-1H-pyrazol-4-yl)oxy]benzonitrile]", "IC50": 6}
    ]},
    {"system": "not given", "experiment": "not given", "settings": "not given", "units": {"melting point": "°C"}, "values": [
      {"smiles": "CCc1nn(CCO)c(CC)c1Oc1cc(C)c(C#N)c(C)c1", "note": "[Example 27, 4-[3,5-Diethyl-1-(2-hydroxy-ethyl)-1H-pyrazol-4-yloxy]-2,6-dimethyl-benzonitrile]", "melting point": 97},
      {"smiles": "CNC(=O)Cn1nc(C2CC2)c(Oc2ccc(C#N)cc2)c1C1CC1", "note": "[Example 52, 2-[4-(4-Cyanophenoxy)-3,5-dicyclopropyl-1H-pyrazol-1-yl]-N-methylacetamide]", "melting point": 163},
      {"smiles": "CCOC(=O)Cn1nc(C2CC2)c(Oc2cc(C)c(C#N)c(C)c2)c1C1CC1", "note": "(hydrate or solvate) [Example 38, Ethyl[4-(4-cyano-3,5-dimethylphenoxy)-3,5-dicyclopropyl-1H-pyrazol-1-yl]acetate]", "melting point": "156 to 157"},
      {"smiles": "CCOC(=O)Cn1nc(CC)c(Oc2ccc(C#N)cc2)c1CC", "note": "[Example 35, Ethyl[4-(4-cyanophenoxy)-3,5-diethyl-1H-pyrazol-1-yl]acetate]", "melting point": "147 to 149"},
      {"smiles": "CCc1nn(CCO)c(CC)c1Oc1ccc(C#N)cc1", "note": "[Example 21, 4-[3,5-Diethyl-1-(2-hydroxy-ethyl)-1H-pyrazol-4-yloxy]-benzonitrile]", "melting point": 82},
      {"smiles": "CCc1nn(CCO)c(CC)c1Oc1ccc(C#N)c(Cl)c1", "melting point": 85}
    ]}
  ]
}
